Data as given in patent US20180022780A1, “STABILIZATION ADRENOMEDULLIN DERIVATIVES AND USE THEREOF” (priority 2014, published 2018).
Bridge positions count the residues as written; N and C are the ends. Square brackets hold non-standard residues; d marks the D form. Peptide text beside a SMILES is read from it. * marks the point of attachment. X1 = CN(C)c1ccc2c(c1)Oc1cc(N(C)C)ccc1C21OC(=O)c2ccc(C(=O)*)cc21; Palmitoyl = CCCCCCCCCCCCCCCC(=O)*; Dap = NC[C@H](N)C(=O)O

Key:
[1] = target: T1, human adrenomedullin-receptor (Homo sapiens, UniProt O60895+Q16602); assay: Tests on a recombinant adrenomedullin-receptor reporter cell (CHO, aequorin luminescence); assay type: cell-based; settings: Table 1, CHO cell line carrying the human adrenomedullin-receptor
T1 construct: expressed in transfected cells; host or cells: CHO (Chinese hamster ovary) recombinant reporter cell line with aequorin
T1 sequence (Q16602 23-461): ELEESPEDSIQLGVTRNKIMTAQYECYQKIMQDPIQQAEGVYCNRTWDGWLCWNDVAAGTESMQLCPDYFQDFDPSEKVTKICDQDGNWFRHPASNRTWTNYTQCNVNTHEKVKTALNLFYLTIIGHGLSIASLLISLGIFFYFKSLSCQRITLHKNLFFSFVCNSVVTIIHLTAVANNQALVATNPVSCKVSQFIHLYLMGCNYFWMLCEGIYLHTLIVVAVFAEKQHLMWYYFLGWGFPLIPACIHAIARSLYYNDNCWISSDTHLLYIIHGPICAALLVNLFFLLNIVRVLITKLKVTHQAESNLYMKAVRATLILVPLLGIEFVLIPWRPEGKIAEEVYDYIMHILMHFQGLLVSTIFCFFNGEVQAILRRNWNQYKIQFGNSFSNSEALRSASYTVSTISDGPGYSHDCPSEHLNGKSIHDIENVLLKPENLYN
T1 sequence (O60895 43-175): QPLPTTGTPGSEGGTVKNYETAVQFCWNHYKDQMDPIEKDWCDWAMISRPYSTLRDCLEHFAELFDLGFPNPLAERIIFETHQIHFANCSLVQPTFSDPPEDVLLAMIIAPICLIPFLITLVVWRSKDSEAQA
Protocol: Activation of the receptor by ligands was measured by aequorin luminescence. Construction of the cell line and measurement procedure has been described in detail [Wunder F., Rebmann A., Geerts A, and Kalthof B., Mol Pharmacol, 73, 1235-1243 (2008)]. In brief: Cells were seeded on opaque 384-well microtiter plates at a density of 4000 cells/well and were grown for 24 h. After removal of culture medium, cells were loaded for 3 h with 0.6 μg/ml coelenterazine in Ca^2+-free Tyrode solution (130 mM sodium chloride, 5 mM potassium chloride, 20 mM HEPES (4-(2-hydroxyethyl)-1-piperazineethanesulfonic acid), 1 mM magnesium chloride, and 4.8 mM sodium hydrogen carbonate, pH 7.4) supplemented with 0.2 mM 3-Isobutyl-1-methylxanthine (IBMX) in a cell culture incubator. Examples were added for 6 min in calcium^2+-free Tyrode solution containing 0.1% bovine serum albumin. Immediately before adding calcium^2+ to a final concentration of 3 mM measurement of the aequorin luminescence was started by use of a suitable luminometer. Luminescence was measured for 60 s. In a typical experiment compounds were tested in a concentration range of 1×10^−13 to 3×10^−6 M.

[2] = target: T2, CLR fused to EYFP and RAMP2 fused to ECFP (Homo sapiens, UniProt O60895+Q16602); assay: cAMP assay (CRE luciferase reporter, HEK-293 cells transiently co-transfected with CLR and RAMP2); assay type: cell-based; settings: Table 2, cAMP assay; HEK-293, CLR/RAMP2, CRE luciferase, 3 h stimulation, normalized to [G^14]ADM(14-52)
T2 construct: EYFP; ECFP; expressed in transfected cells; host or cells: HEK-293 cells, transient co-transfection
T2 sequence (Q16602 23-461): as the sequence (Q16602 23-461) above
T2 sequence (O60895 43-175): as the sequence (O60895 43-175) above
Method in brief: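 HEK-293 cells transiently co-transfected with CLR-EYFP, RAMP2-ECFP and a CRE-luc2P luciferase reporter were stimulated with ligands (eight concentrations, triplicate) for 3 h at 37 °C. Luminescence was corrected to 5 µM forskolin, normalized to [G^14]ADM(14-52) standard, and fitted by non-linear regression to dose-response curves.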

[3] = Stability in human blood plasma (TAM-labeled analogues); assay type: in vitro ADME; settings: 10E-5 M, 37° C., two phase decay, N-terminally TAM-labeled analogues, read-out: HalfLife (Slow) (converted)
Excerpt: FIG. 3: Stability of peptides in plasma calculated with GraphPad Prism 5 (GraphPad Software) using two phase decay analysis for the determination of half-life (slow) (Test 1e). N-terminally 6-carboxytetramethylrhodamine-(TAM)-labeled analogues of Control: TAM[G^14]ADM(14-52); Example 18: TAM[K^14(PAM), (Dpr^16, E^21)lac]ADM(14-52); and Example 27: TAM[K^14(PAM), (Dpr^16, E^21)lac, Nα-Me-K^46]ADM(14-52).
The stability of the peptides was investigated using N-terminally 6-carboxytetramethylrhodamine-(TAM)-labeled analogues.
Fluorescently labeled ADM analogues were prepared by using solid phase peptide synthesis (SPPS) as described before (general method for peptide synthesis). Manual coupling of 6-carboxytetramethylrhodamine (TAM) to the N-terminus of the peptides was carried out with a 3-fold molar excess of the fluorescence dye, 2-(1H-benzotriazol-1-yl)-1,1,3,3-tetramethyluronium hexafluorophosphate (HBTU) and N,N-Diisopropylethylamine (DIPEA) in DMF under constant shaking for 24 h the resin as described recently (Bohme D., Beck-Sickinger A. G. ChemMedChem 2015, 10: 804-14). The identity of the peptides was confirmed by mass spectrometry with an MALDI-MS (UltraflexIII, Bruker) and an ESI-MS (HCT, Bruker). The observed masses were in correspondence to the calculated masses.
The peptides were dissolved in 1.5 ml of human blood plasma to a concentration of 10E-5 M and incubated at 37° C. under constant shaking. […] The samples were analyzed by RP-HPLC using a Varian VariTide RPC column (particle size 6 μm; pore size 200 Å; 250×4.6 mm) with linear gradients of 0.1% TFA in water and 0.08% TFA in ACN; fluorescence emission was detected at λ=573 nm. The percentage of intact peptide was determined by peak integration. […] The stability of the peptides was calculated with GraphPad Prism 5 (GraphPad Software) using a two phase exponential decay function for the determination of slow-decay phase half-lives (ln(2)/Kslow; Kslow: rate constant of slow part of exponential decay) (Table 3 and FIG. 3).

EC50 [1] [nM]	EC50 [2] [nM]	half-life at 0.0001 M [3] [h]	SMILES
> 1000	> 1000		CC[C@H](C)[C@H](NC(=O)[C@H](CCC(N)=O)NC(=O)[C@H](Cc1c[nH]cn1)NC(=O)[C@H](C)NC(=O)[C@H](CC(C)C)NC(=O)[C@H](CCCCN)NC(=O)[C@H](CCC(N)=O)NC(=O)[C@@H](NC(=O)[C@@H](NC(=O)[C@@H]1CC(=O)NCCCC[C@H](NC(=O)CNC(=O)CN)C(=O)N[C@@H](CCCNC(=N)N)C(=O)N[C@@H](Cc2ccccc2)C(=O)NCC(=O)N[C@@H]([C@@H](C)O)C(=O)N1)[C@@H](C)O)C(C)C)C(=O)N[C@@H](Cc1ccc(O)cc1)C(=O)N[C@@H](CCC(N)=O)C(=O)N[C@@H](Cc1ccccc1)C(=O)N[C@H](C(=O)N[C@@H](CC(=O)O)C(=O)N[C@@H](CCCCN)C(=O)N[C@@H](CC(=O)O)C(=O)N[C@@H](CCCCN)C(=O)N[C@@H](CC(=O)O)C(=O)N[C@@H](CC(N)=O)C(=O)N[C@H](C(=O)N[C@@H](C)C(=O)N1CCC[C@H]1C(=O)N[C@@H](CCCNC(=N)N)C(=O)N[C@@H](CO)C(=O)N[C@@H](CCCCN)C(=O)N[C@H](C(=O)N[C@@H](CO)C(=O)N1CCC[C@H]1C(=O)N[C@@H](CCC(N)=O)C(=O)NCC(=O)N[C@@H](Cc1ccc(O)cc1)C(N)=O)[C@@H](C)CC)C(C)C)[C@@H](C)O [Example 21, ((2S,5S,11S,14S,22S)-22-(2-(2-aminoacetamido)acetamido)-5-benzyl-2-(3-guanidinopropyl)-11-((R)-1-hydroxyethyl)-3,6,9,12,16,23-hexaoxo-1,4,7,10,13,17-hexaazacyclotricosane-14-carbonyl)-L-threonyl-ADM(22-52)] (H-GGKRFGTDTVQKLAHQIYQFTDKDKDNVAPRSKISPQGY-NH2; lactam 3-8)
15	2.3		CC[C@H](C)[C@H](NC(=O)[C@H](CCC(N)=O)NC(=O)[C@H](Cc1c[nH]cn1)NC(=O)[C@H](C)NC(=O)[C@H](CC(C)C)NC(=O)[C@H](CCCCN)NC(=O)[C@H](CCC(N)=O)NC(=O)[C@@H](NC(=O)[C@@H](NC(=O)[C@@H]1CCCCNC(=O)C[C@H](NC(=O)CNC(=O)CN)C(=O)N[C@@H](CCCNC(=N)N)C(=O)N[C@@H](Cc2ccccc2)C(=O)NCC(=O)N[C@@H]([C@@H](C)O)C(=O)N1)[C@@H](C)O)C(C)C)C(=O)N[C@@H](Cc1ccc(O)cc1)C(=O)N[C@@H](CCC(N)=O)C(=O)N[C@@H](Cc1ccccc1)C(=O)N[C@H](C(=O)N[C@@H](CC(=O)O)C(=O)N[C@@H](CCCCN)C(=O)N[C@@H](CC(=O)O)C(=O)N[C@@H](CCCCN)C(=O)N[C@@H](CC(=O)O)C(=O)N[C@@H](CC(N)=O)C(=O)N[C@H](C(=O)N[C@@H](C)C(=O)N1CCC[C@H]1C(=O)N[C@@H](CCCNC(=N)N)C(=O)N[C@@H](CO)C(=O)N[C@@H](CCCCN)C(=O)N[C@H](C(=O)N[C@@H](CO)C(=O)N1CCC[C@H]1C(=O)N[C@@H](CCC(N)=O)C(=O)NCC(=O)N[C@@H](Cc1ccc(O)cc1)C(N)=O)[C@@H](C)CC)C(C)C)[C@@H](C)O [Example 22, ((3S,9S,12S,15S,23S)-15-(2-(2-aminoacetamido)acetamido)-9-benzyl-12-(3-guanidinopropyl)-3-((R)-1-hydroxyethyl)-2,5,8,11,14,17-hexaoxo-1,4,7,10,13,18-hexaazacyclotricosane-23-carbonyl)-L-threonyl-ADM(22-52)] (H-GGDRFGTKTVQKLAHQIYQFTDKDKDNVAPRSKISPQGY-NH2; lactam 3-8)
32	> 1000		CC[C@H](C)[C@H](NC(=O)[C@H](CCC(N)=O)NC(=O)[C@H](Cc1c[nH]cn1)NC(=O)[C@H](C)NC(=O)[C@H](CC(C)C)NC(=O)[C@H](CCCCN)NC(=O)[C@H](CCC(N)=O)NC(=O)[C@@H](NC(=O)[C@@H](NC(=O)[C@@H]1CNC(=O)C[C@H](NC(=O)CNC(=O)CN)C(=O)N[C@@H](CCCNC(=N)N)C(=O)N[C@@H](Cc2ccccc2)C(=O)NCC(=O)N[C@@H]([C@@H](C)O)C(=O)N1)[C@@H](C)O)C(C)C)C(=O)N[C@@H](Cc1ccc(O)cc1)C(=O)N[C@@H](CCC(N)=O)C(=O)N[C@@H](Cc1ccccc1)C(=O)N[C@H](C(=O)N[C@@H](CC(=O)O)C(=O)N[C@@H](CCCCN)C(=O)N[C@@H](CC(=O)O)C(=O)N[C@@H](CCCCN)C(=O)N[C@@H](CC(=O)O)C(=O)N[C@@H](CC(N)=O)C(=O)N[C@H](C(=O)N[C@@H](C)C(=O)N1CCC[C@H]1C(=O)N[C@@H](CCCNC(=N)N)C(=O)N[C@@H](CO)C(=O)N[C@@H](CCCCN)C(=O)N[C@H](C(=O)N[C@@H](CO)C(=O)N1CCC[C@H]1C(=O)N[C@@H](CCC(N)=O)C(=O)NCC(=O)N[C@@H](Cc1ccc(O)cc1)C(N)=O)[C@@H](C)CC)C(C)C)[C@@H](C)O [Example 26, ((3S,6S,12S,15S,18S)-18-(2-(2-aminoacetamido)acetamido)-12-benzyl-15-(3-guanidinopropyl)-6-((R)-1-hydroxyethyl)-5,8,11,14,17,20-hexaoxo-1,4,7,10,13,16-hexaazacycloicosane-3-carbonyl)-L-threonyl-ADM(22-52)] (H-GGDRFGT[Dap]TVQKLAHQIYQFTDKDKDNVAPRSKISPQGY-NH2; lactam 3-8)
		> 96	CCCCCCCCCCCCCCCC(=O)NCCCC[C@H](NC(=O)c1ccc2c(c1)C1(OC2=O)c2ccc(N(C)C)cc2Oc2cc(N(C)C)ccc21)C(=O)NCC(=O)N[C@H]1CNC(=O)CC[C@@H](C(=O)N[C@H](C(=O)N[C@H](C(=O)N[C@@H](CCC(N)=O)C(=O)N[C@@H](CCCCN)C(=O)N[C@@H](CC(C)C)C(=O)N[C@@H](C)C(=O)N[C@@H](Cc2c[nH]cn2)C(=O)N[C@@H](CCC(N)=O)C(=O)N[C@H](C(=O)N[C@@H](Cc2ccc(O)cc2)C(=O)N[C@@H](CCC(N)=O)C(=O)N[C@@H](Cc2ccccc2)C(=O)N[C@H](C(=O)N[C@@H](CC(=O)O)C(=O)N[C@@H](CCCCN)C(=O)N[C@@H](CC(=O)O)C(=O)N[C@@H](CCCCN)C(=O)N[C@@H](CC(=O)O)C(=O)N[C@@H](CC(N)=O)C(=O)N[C@H](C(=O)N[C@@H](C)C(=O)N2CCC[C@H]2C(=O)N[C@@H](CCCNC(=N)N)C(=O)N[C@@H](CO)C(=O)N[C@@H](CCCCN)C(=O)N[C@H](C(=O)N[C@@H](CO)C(=O)N2CCC[C@H]2C(=O)N[C@@H](CCC(N)=O)C(=O)NCC(=O)N[C@@H](Cc2ccc(O)cc2)C(N)=O)[C@@H](C)CC)C(C)C)[C@@H](C)O)[C@@H](C)CC)C(C)C)[C@@H](C)O)NC(=O)[C@H]([C@@H](C)O)NC(=O)CNC(=O)[C@H](Cc2ccccc2)NC(=O)[C@H](CCCNC(=N)N)NC1=O [TAM-18, TAM[K^14(PAM), (Dpr^16, E^21)lac]ADM(14-52)] (X1-K(Palmitoyl)G[Dap]RFGTETVQKLAHQIYQFTDKDKDNVAPRSKISPQGY-NH2; lactam 3-8)
